What was measured:
[1] = target: Serine/threonine-protein kinase B-raf (Homo sapiens) (UniProt P15056); details: at 10 µM
[2] = target: T1, MAP kinase-activated protein kinase 5 (Homo sapiens) (UniProt Q8IW41); assay: Selectivity interaction (Kinase panel (Z-LYTE Assay)) EUB0001632a MAPKAPK5; details: at 10 µM
T1 sequence (whole entry): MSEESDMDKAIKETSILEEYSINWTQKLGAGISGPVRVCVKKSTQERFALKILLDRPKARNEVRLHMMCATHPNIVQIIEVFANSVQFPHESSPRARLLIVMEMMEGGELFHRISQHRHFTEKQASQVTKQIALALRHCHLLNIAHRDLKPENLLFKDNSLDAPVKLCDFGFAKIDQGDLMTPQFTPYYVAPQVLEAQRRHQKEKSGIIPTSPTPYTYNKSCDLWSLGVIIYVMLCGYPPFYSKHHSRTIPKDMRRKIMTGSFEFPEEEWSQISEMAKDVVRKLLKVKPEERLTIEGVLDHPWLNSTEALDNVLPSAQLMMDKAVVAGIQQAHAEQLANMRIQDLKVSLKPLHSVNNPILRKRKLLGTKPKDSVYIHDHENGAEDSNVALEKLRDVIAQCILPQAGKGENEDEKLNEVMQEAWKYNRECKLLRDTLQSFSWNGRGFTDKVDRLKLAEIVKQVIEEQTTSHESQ

[3] = target: Activin receptor type-1-like (Homo sapiens) (UniProt P37023); assay: Selectivity interaction (KinomeScan (DiscoverX)) EUB0000595a ACVRL1; details: at 10 µM
[4] = target: Casein kinase II subunit alpha' (Homo sapiens) (UniProt P19784); assay: Selectivity interaction (KinomeScan (DiscoverX)) EUB0000655a CSNK2A2; details: at 10 µM
[5] = target: T2, Cyclin-G-associated kinase (Homo sapiens) (UniProt O14976); assay: Selectivity interaction (KinomeScan (DiscoverX)) EUB0000618a GAK; details: at 10 µM
T2 sequence (whole entry): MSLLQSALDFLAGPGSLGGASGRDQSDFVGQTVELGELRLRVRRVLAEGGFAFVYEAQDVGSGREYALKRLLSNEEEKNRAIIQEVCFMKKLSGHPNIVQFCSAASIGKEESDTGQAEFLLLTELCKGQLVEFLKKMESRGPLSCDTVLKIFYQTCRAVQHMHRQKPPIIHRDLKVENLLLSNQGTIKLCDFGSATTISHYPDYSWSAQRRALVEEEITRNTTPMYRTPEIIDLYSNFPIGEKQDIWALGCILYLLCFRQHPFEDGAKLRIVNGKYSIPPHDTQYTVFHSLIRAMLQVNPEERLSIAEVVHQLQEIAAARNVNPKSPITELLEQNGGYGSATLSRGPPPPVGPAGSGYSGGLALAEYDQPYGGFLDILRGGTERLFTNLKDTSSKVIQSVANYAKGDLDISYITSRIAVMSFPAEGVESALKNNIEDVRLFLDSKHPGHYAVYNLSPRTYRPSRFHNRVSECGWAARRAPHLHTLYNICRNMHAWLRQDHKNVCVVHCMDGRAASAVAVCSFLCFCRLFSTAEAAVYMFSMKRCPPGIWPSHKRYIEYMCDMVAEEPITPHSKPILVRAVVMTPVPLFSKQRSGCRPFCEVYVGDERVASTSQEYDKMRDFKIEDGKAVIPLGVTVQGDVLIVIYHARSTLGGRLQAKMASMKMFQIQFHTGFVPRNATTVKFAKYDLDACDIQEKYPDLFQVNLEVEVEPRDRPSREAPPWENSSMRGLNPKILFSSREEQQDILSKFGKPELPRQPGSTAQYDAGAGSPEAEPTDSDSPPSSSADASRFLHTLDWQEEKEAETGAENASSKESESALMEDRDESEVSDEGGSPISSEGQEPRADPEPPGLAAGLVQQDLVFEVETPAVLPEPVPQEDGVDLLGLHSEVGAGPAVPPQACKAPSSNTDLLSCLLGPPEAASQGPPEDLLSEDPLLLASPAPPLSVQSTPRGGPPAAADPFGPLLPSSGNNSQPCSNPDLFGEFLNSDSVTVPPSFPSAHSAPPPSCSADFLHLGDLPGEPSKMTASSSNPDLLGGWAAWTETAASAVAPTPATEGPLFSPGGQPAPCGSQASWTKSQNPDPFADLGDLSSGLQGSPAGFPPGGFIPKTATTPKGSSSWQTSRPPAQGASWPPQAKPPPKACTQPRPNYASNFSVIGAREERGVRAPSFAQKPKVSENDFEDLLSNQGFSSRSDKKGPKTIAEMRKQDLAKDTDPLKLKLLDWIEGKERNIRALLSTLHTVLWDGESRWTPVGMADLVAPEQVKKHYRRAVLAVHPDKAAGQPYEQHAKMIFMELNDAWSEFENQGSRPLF

[6] = target: T3, Tyrosine-protein kinase receptor TYRO3 (Homo sapiens) (UniProt Q06418); assay: Selectivity interaction (KinomeScan (DiscoverX)) EUB0000618a TYRO3; details: at 10 µM
T3 sequence (whole entry): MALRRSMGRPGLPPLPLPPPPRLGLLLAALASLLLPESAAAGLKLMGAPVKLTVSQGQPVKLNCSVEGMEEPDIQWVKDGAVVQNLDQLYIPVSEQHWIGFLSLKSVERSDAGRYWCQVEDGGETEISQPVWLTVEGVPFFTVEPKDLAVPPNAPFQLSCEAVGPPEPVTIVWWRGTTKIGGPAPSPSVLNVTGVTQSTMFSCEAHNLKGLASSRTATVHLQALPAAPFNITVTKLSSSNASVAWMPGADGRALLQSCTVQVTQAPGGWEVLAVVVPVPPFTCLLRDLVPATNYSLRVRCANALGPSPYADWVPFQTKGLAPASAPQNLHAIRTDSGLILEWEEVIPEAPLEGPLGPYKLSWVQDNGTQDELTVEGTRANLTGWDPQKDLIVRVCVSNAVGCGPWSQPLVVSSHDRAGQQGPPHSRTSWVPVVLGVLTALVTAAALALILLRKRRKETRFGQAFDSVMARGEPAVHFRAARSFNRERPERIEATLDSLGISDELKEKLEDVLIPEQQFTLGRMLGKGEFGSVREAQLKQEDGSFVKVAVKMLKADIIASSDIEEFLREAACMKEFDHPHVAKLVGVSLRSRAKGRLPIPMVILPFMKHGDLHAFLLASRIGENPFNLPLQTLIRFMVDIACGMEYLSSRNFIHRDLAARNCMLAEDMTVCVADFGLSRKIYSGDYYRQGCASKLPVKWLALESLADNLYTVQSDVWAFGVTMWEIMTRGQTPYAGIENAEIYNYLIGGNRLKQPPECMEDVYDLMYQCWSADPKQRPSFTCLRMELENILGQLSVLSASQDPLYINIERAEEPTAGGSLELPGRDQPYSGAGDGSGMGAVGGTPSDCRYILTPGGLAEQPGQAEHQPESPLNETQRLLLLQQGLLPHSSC

[7] = target: Phosphatidylinositol 4-kinase beta (Homo sapiens, UniProt Q9UBF8); assay: Selectivity interaction (Kinase panel (KiNativ target engagement assay in Jurkat cells)) EUB0001635a PI4KB; type: cell-based; details: Selectivity number of off-targets 0.0, Selectivity number of targets 233.0, Source Knowledge https://www.sciencedirect.com/science/article/pii/S2451945619300674?via%3Dihub, at 1 µM
Sequence of Phosphatidylinositol 4-kinase beta (Q9UBF8 2-816 limits assumed): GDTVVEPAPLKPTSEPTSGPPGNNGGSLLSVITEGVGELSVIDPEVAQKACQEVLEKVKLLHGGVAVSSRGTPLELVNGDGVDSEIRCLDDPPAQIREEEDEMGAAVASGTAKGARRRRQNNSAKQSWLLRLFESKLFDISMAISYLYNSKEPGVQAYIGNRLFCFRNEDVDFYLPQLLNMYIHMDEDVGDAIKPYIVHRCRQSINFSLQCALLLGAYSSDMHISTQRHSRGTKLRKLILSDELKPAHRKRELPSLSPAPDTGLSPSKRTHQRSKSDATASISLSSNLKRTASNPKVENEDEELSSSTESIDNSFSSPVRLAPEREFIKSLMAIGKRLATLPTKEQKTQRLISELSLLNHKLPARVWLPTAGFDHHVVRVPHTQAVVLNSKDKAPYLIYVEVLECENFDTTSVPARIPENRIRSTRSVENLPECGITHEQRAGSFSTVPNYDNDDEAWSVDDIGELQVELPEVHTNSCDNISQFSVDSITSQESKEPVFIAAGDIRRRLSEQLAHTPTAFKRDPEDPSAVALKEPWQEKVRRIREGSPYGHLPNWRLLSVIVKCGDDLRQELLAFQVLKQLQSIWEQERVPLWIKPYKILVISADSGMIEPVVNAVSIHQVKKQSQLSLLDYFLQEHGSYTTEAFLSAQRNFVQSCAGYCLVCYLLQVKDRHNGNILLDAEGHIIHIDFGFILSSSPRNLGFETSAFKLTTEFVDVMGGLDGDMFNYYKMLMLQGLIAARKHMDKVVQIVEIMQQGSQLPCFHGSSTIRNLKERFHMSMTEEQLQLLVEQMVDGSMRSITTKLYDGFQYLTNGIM

Sequence of Serine/threonine-protein kinase B-raf (Homo sapiens) (P15056 whole entry): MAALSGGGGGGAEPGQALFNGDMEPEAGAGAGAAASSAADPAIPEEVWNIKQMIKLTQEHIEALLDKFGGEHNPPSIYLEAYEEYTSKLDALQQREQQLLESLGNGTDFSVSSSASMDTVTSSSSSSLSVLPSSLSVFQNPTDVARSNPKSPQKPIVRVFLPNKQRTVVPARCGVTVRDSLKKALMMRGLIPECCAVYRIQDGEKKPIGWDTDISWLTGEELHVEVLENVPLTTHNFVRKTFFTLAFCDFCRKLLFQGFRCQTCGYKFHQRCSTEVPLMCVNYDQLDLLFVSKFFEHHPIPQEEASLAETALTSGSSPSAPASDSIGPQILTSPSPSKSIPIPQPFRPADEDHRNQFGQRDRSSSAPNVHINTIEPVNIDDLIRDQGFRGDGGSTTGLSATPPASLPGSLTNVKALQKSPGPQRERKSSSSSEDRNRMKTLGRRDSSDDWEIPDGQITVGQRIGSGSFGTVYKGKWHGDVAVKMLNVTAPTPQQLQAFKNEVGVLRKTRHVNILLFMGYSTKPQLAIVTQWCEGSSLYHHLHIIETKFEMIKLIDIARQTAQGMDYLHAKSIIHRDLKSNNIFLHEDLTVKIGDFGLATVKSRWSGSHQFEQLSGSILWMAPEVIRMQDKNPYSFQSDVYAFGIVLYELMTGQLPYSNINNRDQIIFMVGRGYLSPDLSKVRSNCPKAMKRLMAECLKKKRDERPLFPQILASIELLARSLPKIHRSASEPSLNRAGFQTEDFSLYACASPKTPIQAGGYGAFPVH
Sequence of Casein kinase II subunit alpha' (Homo sapiens) (P19784 whole entry, looked up): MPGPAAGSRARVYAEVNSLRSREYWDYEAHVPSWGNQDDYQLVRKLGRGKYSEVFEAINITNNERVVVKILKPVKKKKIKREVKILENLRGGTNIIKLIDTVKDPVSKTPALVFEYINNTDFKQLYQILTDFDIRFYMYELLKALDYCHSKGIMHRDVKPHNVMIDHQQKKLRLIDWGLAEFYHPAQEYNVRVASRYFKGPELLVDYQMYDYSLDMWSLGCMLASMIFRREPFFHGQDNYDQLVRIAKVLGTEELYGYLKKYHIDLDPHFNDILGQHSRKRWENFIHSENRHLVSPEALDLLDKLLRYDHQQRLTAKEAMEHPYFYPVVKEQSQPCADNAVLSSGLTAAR
Sequence of Activin receptor type-1-like (Homo sapiens) (P37023 whole entry): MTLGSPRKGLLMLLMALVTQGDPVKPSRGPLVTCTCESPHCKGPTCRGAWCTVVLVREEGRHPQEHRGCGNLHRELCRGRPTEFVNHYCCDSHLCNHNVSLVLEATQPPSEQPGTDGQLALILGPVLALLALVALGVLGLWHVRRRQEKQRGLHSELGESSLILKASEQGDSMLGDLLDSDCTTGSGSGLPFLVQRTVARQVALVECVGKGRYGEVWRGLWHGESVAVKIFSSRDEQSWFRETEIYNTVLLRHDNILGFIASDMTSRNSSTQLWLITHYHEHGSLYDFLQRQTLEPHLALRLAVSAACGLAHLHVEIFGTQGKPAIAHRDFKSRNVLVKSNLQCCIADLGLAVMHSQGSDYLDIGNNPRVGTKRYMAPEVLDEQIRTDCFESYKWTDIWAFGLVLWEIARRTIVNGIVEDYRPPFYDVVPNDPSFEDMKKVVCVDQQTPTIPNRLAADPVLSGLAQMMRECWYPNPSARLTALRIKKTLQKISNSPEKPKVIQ

**Q.** How did the % of control [1] turn out when `Cc1cc([C@@H](C)Nc2ccccc2C(=O)O)c2nc(N3CCOCC3)cc(=O)n2c1` [AZD-6482] was run?
**A.** 100%

**Q.** How did the % of control [2] turn out when `Cn1cc(-n2cnc3c(NCc4nc5cc(Cl)c(Cl)cc5[nH]4)nc(N4CCOCC4)nc32)cn1` was run?
**A.** 7.02%

**Q.** `COCC(=O)NC/C=C/c1ccc2ncnc(Nc3ccc(Oc4ccc(C)nc4)c(C)c3)c2c1` [CP-724714] was tested. Which % of control [3] did it give?
**A.** 84%

**Q.** With `CN(C)CCOc1ccc(-c2nc(-c3ccncc3)c(-c3ccc4c(c3)CC/C4=N\O)[nH]2)cc1` as the compound, how does the % of control [4] read?
**A.** 74%

**Q.** Which results are given for `O[C@H]1CC[C@H](Nc2ncc3nc(Nc4c(F)cc(F)cc4F)n([C@H]4CCOC4)c3n2)CC1`?
**A.** % of control [5]: 13%; % of control [6]: 100%

**Q.** For `C=CC(=O)Nc1ccc(C(=O)Nc2[nH]nc3c2CN(C(=O)N[C@H](CN(C)C)c2ccccc2)C3(C)C)cc1`, which % of engagement [7] is on record?
**A.** -11.3%
